Measurements reported in patent US20240246941A1, “SUBSTITUTED 4-(3-AMINOPROP-1-YL)AMINOQUINOLINE ANALOGS AS MODULATORS OF MELANOMA-ASSOCIATED ANTIGEN 11 UBIQUITIN LIGASE” (ST. JUDE CHILDREN'S RESEARCH HOSPITAL, INC., priority 2020, published 2024).

What follows are compounds tested against MAGE-A11:PCF11 (Homo sapiens (Human), UniProt P43364) (assay: TR-FRET single point screening at 15 μM). Conditions: single point TR-FRET screening at 15 μM against MAGE-A11:PCF11.
Assay type: binding
Parameters: unit not given here
Procedure, shortened: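 Single-point screen at 15 μM (0.25% DMSO) measuring disruption of GST-MAGEA11 (5 nM) binding to FAM-PCF11_4 peptide (200 nM) detected by Tb-anti-GST (5 nM). Buffer 50 mM Tris pH 7.5, 20 mM MgCl2, 0.1 mg/ml BSA, 1 mM DTT; 90 min at ~25 °C; 520/490 nm ratio converted to % inhibition versus controls.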

MAGE-A11:PCF11, sequence (P43364 218-429): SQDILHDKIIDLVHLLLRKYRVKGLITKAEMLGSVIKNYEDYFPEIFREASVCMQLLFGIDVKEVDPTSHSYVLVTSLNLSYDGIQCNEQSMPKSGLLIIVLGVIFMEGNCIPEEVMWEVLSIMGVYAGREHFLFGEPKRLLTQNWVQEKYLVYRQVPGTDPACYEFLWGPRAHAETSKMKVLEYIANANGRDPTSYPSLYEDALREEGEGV

Compared with `CCN(CCO)CCCC(C)Nc1ccnc2cc(Cl)ccc12` (centres unmarked) [SJ000286026], `CCCN(CCCCNc1ccnc2cc(Cl)ccc12)CCCSC` [SJ000311197] is higher in TR-FRET signal: 3.702 for the first, 3.903 for the second.

Compared with `Clc1ccc2c(NC3CCN(Cc4ccc(Cl)o4)CC3)ccnc2c1` [SJ000311180], `Oc1ccc(Br)cc1CN1CCC(Nc2ccnc3cc(Cl)ccc23)CC1` [SJ000311181] is lower in TR-FRET signal: 0.6827 for the first, −1.209 for the second.

First: CCCN(CCCCNc1ccnc2cc(Cl)ccc12)Cc1ccc[nH]1 [SJ000311198]
Second: CCCN(CCCCNc1ccnc2cc(Cl)ccc12)Cc1ccoc1 [SJ000311200]
The TR-FRET signal of the first is lower: −0.9977 for the first, 12.31 for the second.

Going from `CCCN(CCCCNc1ccnc2cc(Cl)ccc12)Cc1sccc1C` [SJ000311199] to `CCCN(CCCCNc1ccnc2cc(Cl)ccc12)Cc1ccccc1` [SJ000311205], the TR-FRET signal rises from 6.494 to 7.684.

First: CCCN(CCCCNc1ccnc2cc(Cl)ccc12)Cc1cc(F)ccc1OC [SJ000311202]
Second: CCCN(CCCCNc1ccnc2cc(Cl)ccc12)Cc1c(F)cccc1OC [SJ000311203]
The TR-FRET signal of the first is lower: 5.396 for the first, 6.844 for the second.

First: CCCN(CCCCNc1ccnc2cc(Cl)ccc12)Cc1c[nH]c2ccccc12 [SJ000311204]
Second: Clc1ccc2c(NCCCCN(Cc3ccccc3)Cc3ccc[nH]3)ccnc2c1 [SJ000312692]
The TR-FRET signal of the first is lower: −3.378 for the first, 28.28 for the second.

Compared with `Clc1ccc2c(NCCCCN(Cc3ccccc3)Cc3ccco3)ccnc2c1` [SJ000312681], `Cc1ccc(CN(CCCCNc2ccnc3cc(Cl)ccc23)Cc2ccccc2)o1` [SJ000312682] is lower in TR-FRET signal: 12.05 for the first, 2.013 for the second.

Compared with `Clc1ccc2c(NCCCCN(Cc3ccccc3)Cc3ccc(Br)o3)ccnc2c1` [SJ000312684], `Clc1ccc2c(NCCCCN(Cc3ccccc3)Cc3ccc(Br)s3)ccnc2c1` [SJ000312688] is higher in TR-FRET signal: 14.96 for the first, 22.04 for the second.

Compared with `Clc1ccc2c(NCCCCN(Cc3ccccc3)Cc3ccoc3)ccnc2c1` [SJ000312685], `Clc1ccc2c(NCCCCN(Cc3ccccc3)Cc3ccsc3)ccnc2c1` [SJ000312689] is higher in TR-FRET signal: 14.9 for the first, 16.3 for the second.

Going from `Clc1ccc2c(NCCCCN(Cc3ccccc3)Cc3cccs3)ccnc2c1` [SJ000312686] to `Cc1ccc(CN(CCCCNc2ccnc3cc(Cl)ccc23)Cc2ccccc2)s1` [SJ000312687], the TR-FRET signal falls from 25.05 to 20.71.

Going from `Clc1ccc2c(NCCCCN(Cc3ccccc3)Cc3ccccn3)ccnc2c1` [SJ000312690] to `Oc1ccccc1CN(CCCCNc1ccnc2cc(Cl)ccc12)Cc1ccccc1` [SJ000312697], the TR-FRET signal rises from 9.531 to 24.83.

Compared with `COc1cccc(CN(CCCCNc2ccnc3cc(Cl)ccc23)Cc2ccccc2)c1O` [SJ000312694], `COc1ccc(O)c(CN(CCCCNc2ccnc3cc(Cl)ccc23)Cc2ccccc2)c1` [SJ000312696] is lower in TR-FRET signal: 7.676 for the first, 6.634 for the second.

First: COc1ccccc1N1CCN(c2c(S(=O)(=O)c3ccccc3)cnc3ccc(C)cc23)CC1 [SJ000315081]
Second: Cc1ccc2ncc(S(=O)(=O)c3ccccc3)c(N3CCN(c4ccccc4F)CC3)c2c1 [SJ000315092]
The TR-FRET signal of the first is higher: −19.55 for the first, −33.48 for the second.

First: O=S(=O)(c1ccccc1)c1cnc2ccc(F)cc2c1N1CCN(c2ccccc2F)CC1 [SJ000315166]
Second: O=S(=O)(c1ccccc1)c1cnc2ccc(Cl)cc2c1N1CCN(c2ccccc2F)CC1 [SJ000315176]
The TR-FRET signal of the first is lower: −99.06 for the first, −5.441 for the second.

Compared with `COc1ccc2ncc(S(=O)(=O)c3ccccc3)c(N3CCN(c4ccccc4F)CC3)c2c1` [SJ000315263], `CN(C)CC(=O)Nc1c2c(nc3ccccc13)N(C)CC2` [SJ000332030] is higher in TR-FRET signal: −252.5 for the first, 17.04 for the second.

First: CCCCN(CCCC)CC(=O)Nc1c2c(nc3ccccc13)N(C)CC2 [SJ000331523]
Second: CCN(CC)CC(=O)Nc1c2c(nc3ccccc13)N(C)CC2 [SJ000331537]
The TR-FRET signal of the first is lower: 2.503 for the first, 11.78 for the second.

Same assay, conditions: single point TR-FRET screening of quinoline compounds against MAGE-A11:PCF11; 15 μM

First: Clc1ccc2c(NCCCN(Cc3ccccc3)CC3CC=CCC3)ccnc2c1 (centres unmarked) [SJ000311182]
Second: CCCN(CCCNc1ccnc2cc(Cl)ccc12)Cc1ccccc1 [SJ000357431]
The TR-FRET signal of the first is lower: 16.09 for the first, 19.14 for the second.

First: CC(C)CCN(CCCNc1ccnc2cc(Cl)ccc12)Cc1ccccc1 [SJ000311183]
Second: CC(CCN(CCCNc1ccnc2cc(Cl)ccc12)Cc1ccccc1)c1ccccc1 (centres unmarked) [SJ000311184]
The TR-FRET signal of the first is lower: 2.673 for the first, 17.35 for the second.

Compared with `Cc1ccsc1CNCCCNc1ccnc2cc(Cl)ccc12` [SJ000311189], `Cc1ccc(CNCCCNc2ccnc3cc(Cl)ccc23)s1` [SJ000311190] is higher in TR-FRET signal: 6.554 for the first, 10.83 for the second.

Going from `CCCN(CCCNc1ccnc2cc(Cl)ccc12)Cc1ccc(Br)o1` [SJ000311195] to `CCCN(CCCNc1ccnc2cc(Cl)ccc12)Cc1ccc(C)o1` [SJ000357437], the TR-FRET signal rises from 14.48 to 20.15.

Compared with `c1ccc(Oc2ccc3c(NCCCNCc4ccco4)ccnc3c2)cc1` [SJ000311206], `COc1cccc(Oc2ccc3c(NCCCNCc4ccco4)ccnc3c2)c1` [SJ000311214] is higher in TR-FRET signal: 14.59 for the first, 29.11 for the second.

First: COc1ccccc1Oc1ccc2c(NCCCNCc3ccco3)ccnc2c1 [SJ000311210]
Second: COc1ccc(Oc2ccc3c(NCCCNCc4ccco4)ccnc3c2)cc1 [SJ000311218]
The TR-FRET signal of the first is lower: 24.56 for the first, 36.25 for the second.

Compared with `Fc1ccc(Oc2ccc3c(NCCCNCc4ccco4)ccnc3c2)cc1` [SJ000311222], `Clc1ccc(Oc2ccc3c(NCCCNCc4ccco4)ccnc3c2)cc1` [SJ000311226] is higher in TR-FRET signal: 9.365 for the first, 37.65 for the second.

First: CN(C)c1cccc(Oc2ccc3c(NCCCNCc4ccco4)ccnc3c2)c1 [SJ000311230]
Second: CC(C)(C)c1ccc(Oc2ccc3c(NCCCNCc4ccco4)ccnc3c2)cc1 [SJ000311234]
The TR-FRET signal of the first is higher: 63.42 for the first, 57.54 for the second.

Compared with `Fc1ccc(-c2ccc3c(NCCCNCc4ccco4)ccnc3c2)cc1` [SJ000311238], `COc1ccc(-c2ccc3c(NCCCNCc4ccco4)ccnc3c2)cc1` [SJ000311294] is lower in TR-FRET signal: 27.43 for the first, 7.824 for the second.

Going from `CC(C)CCc1ccc2c(NCCCNCc3ccco3)ccnc2c1` [SJ000311246] to `CC(C)Cc1ccc2c(NCCCNCc3ccco3)ccnc2c1` [SJ000311258], the TR-FRET signal falls from 13.01 to 8.874.

Going from `c1coc(CNCCCNc2ccnc3cc(CC4CCCCC4)ccc23)c1` [SJ000311250] to `c1coc(CNCCCNc2ccnc3cc(C4CCCCC4)ccc23)c1` [SJ000311262], the TR-FRET signal falls from 40.66 to 32.96.

First: c1ccc(CCc2ccc3c(NCCCNCc4ccco4)ccnc3c2)cc1 [SJ000311254]
Second: c1ccc(Cc2ccc3c(NCCCNCc4ccco4)ccnc3c2)cc1 [SJ000311306]
The TR-FRET signal of the first is lower: 15.95 for the first, 64.54 for the second.

Compared with `CCC(CC)c1ccc2c(NCCCNCc3ccco3)ccnc2c1` [SJ000311266], `Cc1cc(C)cc(Cc2ccc3c(NCCCNCc4ccco4)ccnc3c2)c1` [SJ000311318] is higher in TR-FRET signal: 24.56 for the first, 39.31 for the second.

Compared with `FC(F)(F)c1cc(-c2ccc3c(NCCCNCc4ccco4)ccnc3c2)cc(C(F)(F)F)c1` [SJ000311270], `FC(F)(F)c1ccc(-c2ccc3c(NCCCNCc4ccco4)ccnc3c2)cc1` [SJ000311278] is lower in TR-FRET signal: 59.71 for the first, 56.21 for the second.

First: c1coc(CNCCCNc2ccnc3cc(-c4cccc5ccccc45)ccc23)c1 [SJ000311274]
Second: c1ccc(-c2ccc3c(NCCCNCc4ccco4)ccnc3c2)cc1 [SJ000311282]
The TR-FRET signal of the first is higher: 41.57 for the first, 28.69 for the second.

Going from `CC(C)(C)c1ccc(-c2ccc3c(NCCCNCc4ccco4)ccnc3c2)cc1` [SJ000311286] to `c1coc(CNCCCNc2ccnc3cc(-c4ccc5c(c4)OCO5)ccc23)c1` [SJ000311290], the TR-FRET signal falls from 73.5 to 30.79.

First: FC(F)(F)c1cccc(Cc2ccc3c(NCCCNCc4ccco4)ccnc3c2)c1 [SJ000311298]
Second: N#Cc1ccc(Cc2ccc3c(NCCCNCc4ccco4)ccnc3c2)cc1 [SJ000311302]
The TR-FRET signal of the first is higher: 27.01 for the first, 20.43 for the second.

Compared with `COc1cc(Cc2ccc3c(NCCCNCc4ccco4)ccnc3c2)cc(OC)c1` [SJ000311310], `Fc1ccc(Cc2ccc3c(NCCCNCc4ccco4)ccnc3c2)c(Cl)c1` [SJ000311322] is higher in TR-FRET signal: 23.79 for the first, 24.77 for the second.

Compared with `Clc1cccc(Cl)c1Cc1ccc2c(NCCCNCc3ccco3)ccnc2c1` [SJ000311314], `Cc1ccc(CNCCCNc2ccnc3cc(Cl)ccc23)o1` [SJ000311326] is lower in TR-FRET signal: 32.4 for the first, 10.2 for the second.

First: Clc1ccc2c(NCCCN(Cc3ccccc3)Cc3ccco3)ccnc2c1 [SJ000312668]
Second: Cc1ccc(CN(CCCNc2ccnc3cc(Cl)ccc23)Cc2ccccc2)o1 [SJ000312669]
The TR-FRET signal of the first is lower: 0.5217 for the first, 2.84 for the second.

Compared with `Clc1ccc2c(NCCCN(Cc3ccccc3)Cc3ccc(Br)o3)ccnc2c1` [SJ000312671], `Cc1ccc(CN(CCCNc2ccnc3cc(Cl)ccc23)Cc2ccccc2)s1` [SJ000312673] is higher in TR-FRET signal: −1.797 for the first, 4.629 for the second.

First: Clc1ccc2c(NCCCN(Cc3ccccc3)Cc3cccs3)ccnc2c1 [SJ000312672]
Second: Clc1ccc2c(NCCCN(Cc3ccccc3)Cc3ccsc3)ccnc2c1 [SJ000312675]
The TR-FRET signal of the first is lower: 4.744 for the first, 9.598 for the second.

Going from `Clc1ccc2c(NCCCN(Cc3ccccc3)Cc3nccs3)ccnc2c1` [SJ000312676] to `Cc1ccsc1CN(CCCNc1ccnc2cc(Cl)ccc12)Cc1ccccc1` [SJ000357440], the TR-FRET signal rises from −4.148 to 10.9.

Going from `Clc1ccc2c(NCCCN(Cc3ccccc3)Cc3ccccn3)ccnc2c1` [SJ000312678] to `Clc1ccc2c(NCCCN(Cc3ccccc3)Cc3ccncc3)ccnc2c1` [SJ000312679], the TR-FRET signal falls from −3.851 to −5.573.

Compared with `CCCN(CCCNc1ccnc2cc(Cl)ccc12)Cc1ccc(C)s1` [SJ000357433], `CCCN(CCCNc1ccnc2cc(Cl)ccc12)Cc1sccc1C` [SJ000357439] is higher in TR-FRET signal: 16.51 for the first, 19.73 for the second.

With `CCCN(CCCNc1ccnc2cc(Cl)ccc12)Cc1ccoc1` [SJ000357442] the TR-FRET signal was 6.214.
